Assay [1] deals with Phosphatidylinositol 4,5-bisphosphate 3-kinase catalytic subunit gamma isoform (Homo sapiens) (UniProt P48736). Kind of assay: Selectivity interaction (Ambit KINOMEscan and KiNATiv profiling in Jurkat cells) EUB0000090b PIK3CG. The class given is cell-based. Conditions: at 1 µM.
Assay [2] deals with T1, Tyrosine-protein kinase ZAP-70 (Homo sapiens) (UniProt P43403).
T1 sequence (whole entry): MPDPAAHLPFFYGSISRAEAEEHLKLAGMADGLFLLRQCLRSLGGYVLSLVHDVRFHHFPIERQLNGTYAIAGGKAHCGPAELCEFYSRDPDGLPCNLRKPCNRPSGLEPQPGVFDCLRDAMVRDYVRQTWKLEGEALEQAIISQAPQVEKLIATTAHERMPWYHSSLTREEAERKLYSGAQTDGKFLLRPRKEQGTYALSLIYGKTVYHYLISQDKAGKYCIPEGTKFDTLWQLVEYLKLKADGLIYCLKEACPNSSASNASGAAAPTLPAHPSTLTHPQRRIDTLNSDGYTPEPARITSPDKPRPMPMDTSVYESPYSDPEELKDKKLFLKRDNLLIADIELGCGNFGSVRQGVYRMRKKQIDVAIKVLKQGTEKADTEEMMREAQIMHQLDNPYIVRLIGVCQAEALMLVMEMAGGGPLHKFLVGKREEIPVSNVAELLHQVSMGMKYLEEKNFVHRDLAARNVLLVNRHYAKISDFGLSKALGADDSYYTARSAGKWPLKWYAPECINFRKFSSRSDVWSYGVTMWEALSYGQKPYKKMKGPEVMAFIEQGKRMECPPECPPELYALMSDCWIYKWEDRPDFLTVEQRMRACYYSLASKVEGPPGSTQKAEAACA
Kind of assay: Selectivity interaction (Ambit KINOMEscan and KiNATiv profiling in Jurkat cells) EUB0000090b ZAP70. The class given is cell-based. Conditions: at 1 µM.

In assay [3] the target is Serine/threonine-protein kinase WNK4 (Homo sapiens) (UniProt Q96J92). Kind of assay: Selectivity interaction (KinomeScan (DiscoverX)) EUB0001049a WNK4. Conditions: at 1 µM.
Sequence of Serine/threonine-protein kinase WNK4 (Homo sapiens) (Q96J92 whole entry): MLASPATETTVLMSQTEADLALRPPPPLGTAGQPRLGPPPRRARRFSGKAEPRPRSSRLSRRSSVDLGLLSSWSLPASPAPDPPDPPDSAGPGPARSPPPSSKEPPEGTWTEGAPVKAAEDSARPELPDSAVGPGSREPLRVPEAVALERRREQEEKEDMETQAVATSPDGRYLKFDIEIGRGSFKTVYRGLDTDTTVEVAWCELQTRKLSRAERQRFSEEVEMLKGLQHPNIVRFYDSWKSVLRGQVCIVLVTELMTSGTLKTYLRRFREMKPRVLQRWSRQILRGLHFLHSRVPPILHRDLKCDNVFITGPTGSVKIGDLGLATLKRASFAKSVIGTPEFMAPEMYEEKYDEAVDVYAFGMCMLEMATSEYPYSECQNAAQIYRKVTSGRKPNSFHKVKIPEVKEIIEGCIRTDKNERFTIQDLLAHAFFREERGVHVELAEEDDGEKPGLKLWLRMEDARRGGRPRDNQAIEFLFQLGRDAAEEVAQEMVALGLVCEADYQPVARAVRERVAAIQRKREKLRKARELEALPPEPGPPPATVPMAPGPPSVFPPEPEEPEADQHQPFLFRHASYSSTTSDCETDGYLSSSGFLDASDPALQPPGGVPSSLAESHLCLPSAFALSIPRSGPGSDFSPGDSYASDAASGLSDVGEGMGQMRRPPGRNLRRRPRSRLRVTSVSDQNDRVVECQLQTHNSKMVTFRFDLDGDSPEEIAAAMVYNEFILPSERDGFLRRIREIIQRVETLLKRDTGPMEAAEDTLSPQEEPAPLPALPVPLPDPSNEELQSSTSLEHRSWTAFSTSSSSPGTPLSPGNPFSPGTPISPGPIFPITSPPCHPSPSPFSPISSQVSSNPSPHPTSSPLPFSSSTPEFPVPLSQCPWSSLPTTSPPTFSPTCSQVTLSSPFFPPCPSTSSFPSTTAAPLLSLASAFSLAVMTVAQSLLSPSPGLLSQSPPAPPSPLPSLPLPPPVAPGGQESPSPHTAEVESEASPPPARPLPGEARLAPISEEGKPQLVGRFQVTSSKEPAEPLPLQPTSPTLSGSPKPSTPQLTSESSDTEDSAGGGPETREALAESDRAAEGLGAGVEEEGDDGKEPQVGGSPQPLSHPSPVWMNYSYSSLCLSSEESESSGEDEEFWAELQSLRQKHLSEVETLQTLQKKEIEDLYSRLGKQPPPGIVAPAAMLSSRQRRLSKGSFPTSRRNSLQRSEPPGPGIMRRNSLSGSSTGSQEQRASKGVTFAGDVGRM
Assay [4] concerns the target Fibroblast growth factor receptor 1 (Homo sapiens, UniProt P11362). Kind of assay: Selectivity interaction (Kinase screening (Nanosyn)) EUB0000604a FGFR1.
The target in assay [5] is T2, Tyrosine-protein kinase JAK3 (Homo sapiens) (UniProt P52333).
T2 sequence (whole entry): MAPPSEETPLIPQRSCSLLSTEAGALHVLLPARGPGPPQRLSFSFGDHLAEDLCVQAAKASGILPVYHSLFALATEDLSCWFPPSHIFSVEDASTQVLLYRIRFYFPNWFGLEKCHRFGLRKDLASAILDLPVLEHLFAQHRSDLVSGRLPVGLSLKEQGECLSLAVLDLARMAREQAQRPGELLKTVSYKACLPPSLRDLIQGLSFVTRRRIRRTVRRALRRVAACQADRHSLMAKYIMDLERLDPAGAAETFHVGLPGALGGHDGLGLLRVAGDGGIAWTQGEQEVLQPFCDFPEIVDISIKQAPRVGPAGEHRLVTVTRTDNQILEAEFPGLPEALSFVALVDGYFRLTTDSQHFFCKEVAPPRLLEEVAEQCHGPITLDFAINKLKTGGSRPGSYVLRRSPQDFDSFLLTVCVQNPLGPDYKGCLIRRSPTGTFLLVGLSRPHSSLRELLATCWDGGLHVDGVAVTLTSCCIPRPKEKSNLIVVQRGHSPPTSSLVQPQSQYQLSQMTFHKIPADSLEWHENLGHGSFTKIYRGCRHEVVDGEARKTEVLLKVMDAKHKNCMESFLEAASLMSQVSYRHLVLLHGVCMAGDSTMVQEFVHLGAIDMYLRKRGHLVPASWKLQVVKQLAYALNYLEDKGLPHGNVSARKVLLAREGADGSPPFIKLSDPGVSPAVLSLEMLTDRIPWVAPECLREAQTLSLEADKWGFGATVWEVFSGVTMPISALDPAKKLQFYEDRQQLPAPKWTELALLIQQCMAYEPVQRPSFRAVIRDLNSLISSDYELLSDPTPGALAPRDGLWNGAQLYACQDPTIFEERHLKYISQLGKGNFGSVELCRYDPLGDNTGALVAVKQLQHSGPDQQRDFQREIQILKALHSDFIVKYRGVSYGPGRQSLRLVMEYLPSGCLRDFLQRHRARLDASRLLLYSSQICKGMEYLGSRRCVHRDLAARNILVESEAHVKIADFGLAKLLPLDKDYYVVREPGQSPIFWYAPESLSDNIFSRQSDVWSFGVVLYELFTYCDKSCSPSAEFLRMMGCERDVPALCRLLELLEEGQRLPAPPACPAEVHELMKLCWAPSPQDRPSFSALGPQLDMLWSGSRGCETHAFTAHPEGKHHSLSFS
Briefly: Selectivity interaction (Kinase panel (Carna Biosciences)) EUB0001542aTs JAK3. Conditions: at 1 µM.

The target in assay [6] is Serine/threonine-protein kinase 16 (Homo sapiens, UniProt O75716). Kind of assay: Selectivity interaction (KinomeScan (DiscoverX)) EUB0000045b STK16.
Sequence of Serine/threonine-protein kinase 16 (O75716 whole entry): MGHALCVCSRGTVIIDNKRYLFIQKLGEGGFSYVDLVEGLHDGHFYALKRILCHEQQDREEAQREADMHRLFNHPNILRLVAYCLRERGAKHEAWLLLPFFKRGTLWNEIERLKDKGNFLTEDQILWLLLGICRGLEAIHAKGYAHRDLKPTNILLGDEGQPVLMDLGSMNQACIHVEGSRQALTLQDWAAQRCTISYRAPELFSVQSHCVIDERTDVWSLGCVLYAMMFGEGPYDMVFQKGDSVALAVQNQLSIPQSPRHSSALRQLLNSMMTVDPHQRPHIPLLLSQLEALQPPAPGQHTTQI
Assay [7] addresses T3, Serine/threonine-protein kinase ICK (Homo sapiens) (UniProt Q9UPZ9).
T3 sequence (whole entry): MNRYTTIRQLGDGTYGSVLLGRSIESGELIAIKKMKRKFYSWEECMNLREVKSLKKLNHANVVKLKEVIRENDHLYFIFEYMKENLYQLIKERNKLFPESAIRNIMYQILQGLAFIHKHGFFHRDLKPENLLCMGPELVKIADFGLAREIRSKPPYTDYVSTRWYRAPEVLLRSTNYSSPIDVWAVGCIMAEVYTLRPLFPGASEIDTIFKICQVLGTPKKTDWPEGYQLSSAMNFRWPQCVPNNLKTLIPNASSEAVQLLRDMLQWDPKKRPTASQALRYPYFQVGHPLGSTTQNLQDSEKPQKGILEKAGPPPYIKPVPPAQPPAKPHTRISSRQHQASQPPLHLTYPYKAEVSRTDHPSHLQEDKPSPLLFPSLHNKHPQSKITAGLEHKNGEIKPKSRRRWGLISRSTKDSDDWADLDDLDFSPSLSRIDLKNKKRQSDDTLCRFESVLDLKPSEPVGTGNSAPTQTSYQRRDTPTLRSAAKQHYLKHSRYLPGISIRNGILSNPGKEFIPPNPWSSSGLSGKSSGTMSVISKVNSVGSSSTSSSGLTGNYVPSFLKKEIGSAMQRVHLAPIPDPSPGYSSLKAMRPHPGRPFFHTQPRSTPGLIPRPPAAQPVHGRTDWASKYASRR
Kind of assay: Selectivity interaction (KinomeScan (DiscoverX)) EUB0001619a ICK. Conditions: at 1 µM.

For assay [8], the target named is MAP kinase-activated protein kinase 2 (Homo sapiens, UniProt P49137). Kind of assay: Selectivity interaction (KinomeScan (DiscoverX)) EUB0001619a MAPKAPK2. As to conditions: at 1 µM.
Sequence of MAP kinase-activated protein kinase 2 (P49137 whole entry, looked up): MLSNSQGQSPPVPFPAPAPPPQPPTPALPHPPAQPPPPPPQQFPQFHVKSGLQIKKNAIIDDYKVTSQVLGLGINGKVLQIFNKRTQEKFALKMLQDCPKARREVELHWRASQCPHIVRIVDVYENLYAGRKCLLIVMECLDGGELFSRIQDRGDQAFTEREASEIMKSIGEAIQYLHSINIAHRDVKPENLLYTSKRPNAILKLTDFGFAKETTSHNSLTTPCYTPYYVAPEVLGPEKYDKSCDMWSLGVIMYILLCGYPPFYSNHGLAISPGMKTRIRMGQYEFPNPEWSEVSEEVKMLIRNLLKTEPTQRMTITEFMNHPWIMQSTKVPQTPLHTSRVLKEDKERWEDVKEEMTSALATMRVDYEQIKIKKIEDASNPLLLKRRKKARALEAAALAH

Sequence of Phosphatidylinositol 4,5-bisphosphate 3-kinase catalytic subunit gamma isoform (Homo sapiens) (P48736 whole entry, looked up, canonical isoform): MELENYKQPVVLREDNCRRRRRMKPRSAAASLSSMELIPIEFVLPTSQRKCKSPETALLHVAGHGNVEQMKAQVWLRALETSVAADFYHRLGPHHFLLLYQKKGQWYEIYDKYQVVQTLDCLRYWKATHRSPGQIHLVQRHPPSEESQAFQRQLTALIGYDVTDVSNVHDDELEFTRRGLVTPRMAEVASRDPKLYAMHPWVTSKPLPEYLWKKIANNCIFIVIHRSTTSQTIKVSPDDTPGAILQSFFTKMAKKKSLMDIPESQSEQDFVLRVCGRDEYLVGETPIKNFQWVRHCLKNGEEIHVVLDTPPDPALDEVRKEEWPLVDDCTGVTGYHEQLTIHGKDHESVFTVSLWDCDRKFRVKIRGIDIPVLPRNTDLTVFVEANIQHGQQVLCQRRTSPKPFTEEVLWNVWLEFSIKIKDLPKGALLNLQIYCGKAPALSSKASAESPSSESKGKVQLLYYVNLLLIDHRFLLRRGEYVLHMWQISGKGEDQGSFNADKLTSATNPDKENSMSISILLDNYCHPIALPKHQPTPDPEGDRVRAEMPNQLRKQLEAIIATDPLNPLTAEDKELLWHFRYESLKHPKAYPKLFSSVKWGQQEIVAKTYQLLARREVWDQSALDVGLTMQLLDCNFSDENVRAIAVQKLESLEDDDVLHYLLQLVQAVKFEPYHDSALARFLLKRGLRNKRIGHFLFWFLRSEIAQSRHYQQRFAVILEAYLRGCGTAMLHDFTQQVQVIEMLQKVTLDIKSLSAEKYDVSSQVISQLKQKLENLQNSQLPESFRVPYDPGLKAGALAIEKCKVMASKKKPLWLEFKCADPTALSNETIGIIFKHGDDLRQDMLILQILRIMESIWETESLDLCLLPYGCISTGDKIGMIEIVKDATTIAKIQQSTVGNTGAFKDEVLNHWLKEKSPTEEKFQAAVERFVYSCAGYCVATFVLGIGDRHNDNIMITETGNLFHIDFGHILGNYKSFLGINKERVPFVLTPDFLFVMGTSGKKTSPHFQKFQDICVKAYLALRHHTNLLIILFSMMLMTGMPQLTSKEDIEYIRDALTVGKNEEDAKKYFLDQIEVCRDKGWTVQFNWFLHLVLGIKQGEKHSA
Sequence of Fibroblast growth factor receptor 1 (P11362 22-822 limits assumed): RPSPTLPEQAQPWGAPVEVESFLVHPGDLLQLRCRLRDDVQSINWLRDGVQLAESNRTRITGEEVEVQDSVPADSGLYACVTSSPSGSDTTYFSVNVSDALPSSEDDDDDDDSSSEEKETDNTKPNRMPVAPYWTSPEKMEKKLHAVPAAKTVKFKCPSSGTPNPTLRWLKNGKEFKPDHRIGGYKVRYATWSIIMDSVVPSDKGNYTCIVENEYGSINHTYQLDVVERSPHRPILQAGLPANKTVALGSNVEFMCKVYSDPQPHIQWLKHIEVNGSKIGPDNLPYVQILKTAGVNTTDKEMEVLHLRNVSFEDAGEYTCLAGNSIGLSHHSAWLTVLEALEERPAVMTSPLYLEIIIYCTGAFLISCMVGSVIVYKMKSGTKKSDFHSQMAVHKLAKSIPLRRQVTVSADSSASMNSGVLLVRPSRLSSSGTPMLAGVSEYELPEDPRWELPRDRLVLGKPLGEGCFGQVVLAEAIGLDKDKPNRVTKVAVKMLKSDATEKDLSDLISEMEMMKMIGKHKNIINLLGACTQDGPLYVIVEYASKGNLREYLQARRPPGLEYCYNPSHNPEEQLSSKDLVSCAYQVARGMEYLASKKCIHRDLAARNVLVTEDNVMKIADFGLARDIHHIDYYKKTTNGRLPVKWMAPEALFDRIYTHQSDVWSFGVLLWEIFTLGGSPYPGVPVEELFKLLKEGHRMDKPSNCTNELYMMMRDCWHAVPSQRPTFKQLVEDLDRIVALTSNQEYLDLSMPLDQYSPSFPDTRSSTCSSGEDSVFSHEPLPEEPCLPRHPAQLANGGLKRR

With `CN(C)C/C=C/C(=O)Nc1ccc(C(=O)N2CCCC(Nc3ncc(Cl)c(-c4c[nH]c5ccccc45)n3)C2)cc1` (centres undefined), the results for the % of control in assay [1] and in assay [2] were 92% and 86%, respectively. Consider `COc1cc(Nc2nc(C)cc(-c3cnn4nc(OC)ccc34)n2)cc(C(F)(F)F)c1`, for which the % of control in assay [3] stood at 100%. Consider `Cc1cnc(Nc2ccc(F)cc2Cl)nc1-c1c[nH]c(C(=O)N[C@H](CO)c2cccc(Cl)c2)c1`, for which the % of inhibition in assay [4] is 3%. As for `Cn1cc(Nc2nccc(N3CC4CCC(C3)N4C(=O)[C@@H]3CC3(F)F)n2)cn1`, the % of inhibition in assay [5] was 92%. On to `C=CC(=O)Nc1cc(-n2c(=O)ccc3cnc4ccc(-c5ccc(NS(C)(=O)=O)cc5)cc4c32)ccc1C`, for which the results for the % of control in assay [6] (at 1 µM) and in assay [6] (at 10 µM) were 98% and 28%, respectively.

As for `N#Cc1cccc(-c2c[nH]c3ncnc(N4CCOCC4)c23)c1`, the % of control amounted to 96% in assay [7] and 100% in assay [8].

Source of the values: ChEMBL document CHEMBL5465560, “Selectivity Literature for EUbOPEN Chemogenomic Library” (2024).
